US10323036B2 (Nimbus Lakshmi, Inc., priority 2016, dated 2019)
Like-named read-outs stand apart in the source and are kept apart here.

Key:
[1] = biological target: TYK2 JH1 kinase (Homo sapiens (Human), UniProt P29597); assay: Tyk2 Radioactive Kinase Assay; assay type: biochemical; settings: ATP at 10 μM
Method: (§1) Peptide substrate, [KKSRGDYMTMQIG (SEQ ID NO: 2)], (20 μM) is prepared in reaction buffer (20 mM Hepes pH 7.5, 10 mM MgCl2, 1 mM EGTA, 0.02% Brij35, 0.02 mg/mL BSA, […], 2 mM DTT, 1% DMSO. TYK2 (Invitrogen) kinase is added, followed by compounds in DMSO. 33PATP is added to initiate the reaction in ATP at 10 μM. Kinase reaction is incubated for 120 min at room temp and reactions are spotted onto P81 ion exchange paper (Whatman #3698-915), and then washed extensively in 0.75% phosphoric acid, prior to reading the radioactivity counts. For JAK2 (Invitrogen) kinase assay the peptide substrate poly[Glu:Tyr] (4:1), 0.2 mg/ml is used, in the reaction carried out the same as for TYK2.

[2] = biological target: human TYK2 (JH2domain-pseudokinase) (Homo sapiens (Human), UniProt P29597); assay: TYK2 JH2 Domain Binding Assay (KINOMEscan)
[3] = biological target: JAK2 JH1 kinase (Homo sapiens (Human), UniProt O60674); assay: JAK2 Radioactive Kinase Assay; assay type: biochemical; settings: ATP at 10 μM
Method: as §1

[4] = Table 4, JH2 binding assay, read-out: JH2 Kd
[5] = Table 5, Tyk2 JH2 Domain Binding Assay, read-out: JH2 Kd

Chain of human TYK2 (JH2domain-pseudokinase) (P29597 556-888): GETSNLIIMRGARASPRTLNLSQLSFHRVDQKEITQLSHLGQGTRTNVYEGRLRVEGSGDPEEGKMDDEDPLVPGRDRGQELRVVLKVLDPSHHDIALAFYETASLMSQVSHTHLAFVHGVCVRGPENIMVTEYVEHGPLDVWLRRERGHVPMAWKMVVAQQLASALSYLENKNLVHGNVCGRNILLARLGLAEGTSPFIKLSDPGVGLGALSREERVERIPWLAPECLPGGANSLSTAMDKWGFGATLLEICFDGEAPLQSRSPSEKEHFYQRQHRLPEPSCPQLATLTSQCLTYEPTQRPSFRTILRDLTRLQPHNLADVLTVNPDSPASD
Chain of JAK2 JH1 kinase (O60674 808-1132): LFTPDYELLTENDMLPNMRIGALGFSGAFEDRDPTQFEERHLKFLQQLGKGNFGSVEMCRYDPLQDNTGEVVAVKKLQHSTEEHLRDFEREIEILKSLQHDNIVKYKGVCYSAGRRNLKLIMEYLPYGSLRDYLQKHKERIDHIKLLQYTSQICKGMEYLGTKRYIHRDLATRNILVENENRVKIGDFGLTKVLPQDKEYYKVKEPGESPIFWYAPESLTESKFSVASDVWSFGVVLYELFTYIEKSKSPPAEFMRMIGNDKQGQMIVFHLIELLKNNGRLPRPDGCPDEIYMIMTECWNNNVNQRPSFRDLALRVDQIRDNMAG
Chain of TYK2 JH1 kinase (P29597 833-1187): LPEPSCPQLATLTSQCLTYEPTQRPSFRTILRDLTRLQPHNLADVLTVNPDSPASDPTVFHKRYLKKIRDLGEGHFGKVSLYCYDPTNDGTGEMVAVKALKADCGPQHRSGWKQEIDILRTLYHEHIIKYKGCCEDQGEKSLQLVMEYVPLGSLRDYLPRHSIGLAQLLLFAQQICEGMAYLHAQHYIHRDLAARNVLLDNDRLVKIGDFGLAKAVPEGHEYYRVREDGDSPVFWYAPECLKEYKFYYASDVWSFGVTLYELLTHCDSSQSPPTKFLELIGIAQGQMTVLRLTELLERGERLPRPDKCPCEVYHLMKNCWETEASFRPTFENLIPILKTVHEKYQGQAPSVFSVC

Kd [2, 4]	SMILES	other results
0.1 to 0.5 nM	COCc1ccnc(Nc2cc(Nc3cccc(-c4nnn(C)n4)c3OC)c3c(=O)n(C)[nH]c3n2)c1 [Compound I-2, 4-((2-methoxy-3-(2-methyl-2H-tetrazol-5-yl)phenyl)amino)-6-((4-(methoxymethyl)pyridin-2-yl)amino)-2-methyl-1,2-dihydro-3H-pyrazolo[3,4-b]pyridin-3-one]	inhibitory activity against TYK2 JH1 kinase function [1]: no detectable inhibitory activity
–	COc1c(Nc2cc(NC(=O)C3CC3)ncc2-c2ncc(F)s2)cccc1-c1nnn(C)n1 [VIII-2, N-(5-(5-fluorothiazol-2-yl)-4-((2-methoxy-3-(2-methyl-2H-tetrazol-5-yl)phenyl)amino)pyridin-2-yl)cyclopropanecarboxamide]	inhibitory activity against TYK2 JH1 kinase function [1]: no detectable inhibitory activity; Kd [2, 5]: 10 to 100 nM; inhibitory activity against JAK2 JH1 kinase function [3]: no detectable inhibitory activity
–	COc1c(Nc2cc(NC(=O)C3CC3)ncc2-c2nnc(C(F)(F)F)o2)cccc1-c1ncn(C)n1 [VIII-3, N-(4-((2-methoxy-3-(1-methyl-1H-1,2,4-triazol-3-yl)phenyl)amino)-5-(5-(trifluoromethyl)-1,3,4-oxadiazol-2-yl)pyridin-2-yl)cyclopropanecarboxamide]	inhibitory activity against TYK2 JH1 kinase function [1]: no detectable inhibitory activity; Kd [2, 5]: > 100 nM; inhibitory activity against JAK2 JH1 kinase function [3]: no detectable inhibitory activity
–	COC(=O)c1nnc(-c2cnc(NC(=O)C3CC3)cc2Nc2cccc(-c3ncn(C)n3)c2OC)o1 [VIII-4, methyl 5-(6-(cyclopropanecarboxamido)-4-((2-methoxy-3-(1-methyl-1H-1,2,4-triazol-3-yl)phenyl)amino)pyridin-3-yl)-1,3,4-oxadiazole-2-carboxylate]	inhibitory activity against TYK2 JH1 kinase function [1]: no detectable inhibitory activity; Kd [2, 5]: 1 to 10 nM; inhibitory activity against JAK2 JH1 kinase function [3]: no detectable inhibitory activity
1 to 10 nM	COc1c(F)cccc1Nc1cc(Nc2cccc(C3CC3)n2)nc2[nH]n(C)c(=O)c12 [Compound I-87, 6-((6-cyclopropylpyridin-2-yl)amino)-4-((3-fluoro-2-methoxyphenyl)amino)-2-methyl-1,2-dihydro-3H-pyrazolo[3,4-b]pyridin-3-one]	–
0.1 to 0.5 nM	COc1c(Cl)cccc1Nc1cc(Nc2ccc(N3CC[C@H](OC)C3)c(C#N)n2)nc2[nH]n(C)c(=O)c12 [Compound I-145, (S)-6-((4-((3-chloro-2-methoxyphenyl)amino)-2-methyl-3-oxo-2,3-dihydro-1H-pyrazolo[3,4-b]pyridin-6-yl)amino)-3-(3-methoxypyrrolidin-1-yl)picolinonitrile]	–
1 to 10 nM	COCc1ccnc(Nc2cc(Nc3ccccc3S(C)(=O)=O)c3c(=O)n(C)[nH]c3n2)c1 [Compound I-110, 6-((4-(methoxymethyl)pyridin-2-yl)amino)-2-methyl-4-((2-(methylsulfonyl)phenyl)amino)-1,2-dihydro-3H-pyrazolo[3,4-b]pyridin-3-one]	–
< 0.1 nM	COc1c(Nc2cc(Nc3cc(C)c(F)cn3)nc3[nH]n(C)c(=O)c23)cccc1-c1nnn(C)n1 [Compound I-8, 6-((5-fluoro-4-methylpyridin-2-yl)amino)-4-((2-methoxy-3-(2-methyl-2H-tetrazol-5-yl)phenyl)amino)-2-methyl-1,2-dihydro-3H-pyrazolo[3,4-b]pyridin-3-one]	–
–	COc1c(Nc2cc(NC(=O)C3CC3)ncc2-c2nnc(CO)o2)cccc1-c1ncn(C)n1 [VIII-5, N-(5-(5-(hydroxymethyl)-1,3,4-oxadiazol-2-yl)-4-((2-methoxy-3-(1-methyl-1H-1,2,4-triazol-3-yl)phenyl)amino)pyridin-2-yl)cyclopropanecarboxamide]	Kd [2, 5]: 1 to 10 nM
> 10 nM	Cn1[nH]c2nc(Nc3ccc(N4CCCCC4)cn3)cc(Nc3ccccc3S(C)(=O)=O)c2c1=O [Compound I-118, 2-methyl-4-((2-(methylsulfonyl)phenyl)amino)-6-((5-(piperidin-1-yl)pyridin-2-yl)amino)-1,2-dihydro-3H-pyrazolo[3,4-b]pyridin-3-one]	–
–	CNc1nn(-c2cccc(-c3ncn(C)n3)c2OC)c2cc(NC(=O)C3CC3)ncc12 [XVI-1, N-(1-(2-methoxy-3-(1-methyl-1H-1,2,4-triazol-3-yl)phenyl)-3-(methylamino)-1H-pyrazolo[4,3-c]pyridin-6-yl)cyclopropanecarboxamide]	Kd [2, 5]: 10 to 100 nM; Kd ([2]; Tyk2 JH2 Domain Binding Assay, read-out: Kd): 7000 to 10000 nM
> 10 nM	COc1c(Cl)cccc1Nc1cc(Nc2ccc(C(F)F)c(C#N)n2)nc2[nH]n(C)c(=O)c12 [Compound I-156, 6-((4-((3-chloro-2-methoxyphenyl)amino)-2-methyl-3-oxo-2,3-dihydro-1H-pyrazolo[3,4-b]pyridin-6-yl)amino)-3-(difluoromethyl)picolinonitrile]	–
1 to 10 nM	COc1c(F)cccc1Nc1cc(Nc2cccc(C(F)(F)F)n2)nc2[nH]n(C)c(=O)c12 [Compound I-86, 4-((3-fluoro-2-methoxyphenyl)amino)-2-methyl-6-((6-(trifluoromethyl)pyridin-2-yl)amino)-1,2-dihydro-3H-pyrazolo[3,4-b]pyridin-3-one]	–
1 to 10 nM	COc1c(Cl)cccc1Nc1cc(Nc2cc3n(n2)CCCC3)nc2[nH]n(C)c(=O)c12 [Compound I-222, 4-((3-chloro-2-methoxyphenyl)amino)-2-methyl-6-((4,5,6,7-tetrahydropyrazolo[1,5-a]pyridin-2-yl)amino)-1,2-dihydro-3H-pyrazolo[3,4-b]pyridin-3-one]	–
–	COc1c(Nc2cc(Nc3cc(C)nc(C)n3)ncc2-c2nnc(CO)o2)cccc1-c1ncn(C)n1 [VIII-14, (5-(6-((2,6-dimethylpyrimidin-4-yl)amino)-4-((2-methoxy-3-(1-methyl-1H-1,2,4-triazol-3-yl)phenyl)amino)pyridin-3-yl)-1,3,4-oxadiazol-2-yl)methanol]	Kd [2, 5]: 0.1 to 1 nM
< 0.1 nM	COc1c(Nc2cc(Nc3ccn(C)n3)nc3[nH]n(C)c(=O)c23)cccc1-c1nnn(C)n1 [Compound I-13, 4-((2-methoxy-3-(2-methyl-2H-tetrazol-5-yl)phenyl)amino)-2-methyl-6-((1-methyl-1H-pyrazol-3-yl)amino)-1,2-dihydro-3H-pyrazolo[3,4-b]pyridin-3-one]	–
0.1 to 0.5 nM	COc1c(Nc2cc(Nc3cccc(N4CC(OC)C4)n3)nc3[nH]n(C)c(=O)c23)cccc1-c1nnn(C)n1 [Compound I-63, 4-((2-methoxy-3-(2-methyl-2H-tetrazol-5-yl)phenyl)amino)-6-((6-(3-methoxyazetidin-1-yl)pyridin-2-yl)amino)-2-methyl-1,2-dihydro-3H-pyrazolo[3,4-b]pyridin-3-one]	–
1 to 10 nM	COc1c(Cl)cccc1Nc1cc(Nc2cnc(C)c(C#N)n2)nc2[nH]n(C)c(=O)c12 [Compound I-135, 6-((4-((3-chloro-2-methoxyphenyl)amino)-2-methyl-3-oxo-2,3-dihydro-1H-pyrazolo[3,4-b]pyridin-6-yl)amino)-3-methylpyrazine-2-carbonitrile]	–
0.1 to 0.5 nM	Cn1[nH]c2nc(Nc3ccccn3)cc(Nc3ccccc3S(C)(=O)=O)c2c1=O [Compound I-142, 2-methyl-4-((2-(methylsulfonyl)phenyl)amino)-6-(pyridin-2-ylamino)-1,2-dihydro-3H-pyrazolo[3,4-b]pyridin-3-one]	–

SMILES	Kd [2, 4]	other results
COc1c(Nc2cc(NC(=O)C3CC3)nc3[nH]n(C)c(=O)c23)cccc1-c1nnn(C)n1 [Compound I-1]	< 0.1 nM	inhibitory activity against TYK2 JH1 kinase function [1]: no detectable inhibitory activity
COc1cc(C(=O)N2CCCC2)ccc1Nc1cc(NC(=O)C2CC2)nc2[nH]n(C)c(=O)c12 [Compound I-70, N-(4-((2-methoxy-4-(pyrrolidine-1-carbonyl)phenyl)amino)-2-methyl-3-oxo-2,3-dihydro-1H-pyrazolo[3,4-b]pyridin-6-yl)cyclopropanecarboxamide]	0.1 to 0.5 nM	–
COc1c(Nc2cc(NC(=O)C3CC3)nc3[nH]n(C)c(=O)c23)cccc1C(=O)O [Compound I-231, 3-((6-(cyclopropanecarboxamido)-2-methyl-3-oxo-2,3-dihydro-1H-pyrazolo[3,4-b]pyridin-4-yl)amino)-2-methoxybenzoic acid]	1 to 10 nM	–
COc1c(C#N)cccc1Nc1cc(NC(=O)C2CC2)nc2[nH]n(C)c(=O)c12 [Compound I-33]	> 10 nM	–
COCc1ccc(Nc2cc(Nc3cccc(C#N)n3)nc3[nH]n(C)c(=O)c23)c(OC)c1 [Compound I-68, 6-((4-((2-methoxy-4-(methoxymethyl)phenyl)amino)-2-methyl-3-oxo-2,3-dihydro-1H-pyrazolo[3,4-b]pyridin-6-yl)amino)picolinonitrile]	0.1 to 0.5 nM	–
COc1c(Nc2cc(NC(=O)C3CC3)nc3[nH]n(C)c(=O)c23)cccc1-n1cccn1 [Compound I-56, N-(4-((2-methoxy-3-(1H-pyrazol-1-yl)phenyl)amino)-2-methyl-3-oxo-2,3-dihydro-1H-pyrazolo[3,4-b]pyridin-6-yl)cyclopropanecarboxamide]	0.5 to 1 nM	–
COc1c(Nc2cc(Nc3ccc(N4CCCCC4)cn3)nc3[nH]n(C)c(=O)c23)cccc1-c1ccn(C)n1 [Compound I-124, 4-((2-methoxy-3-(1-methyl-1H-pyrazol-3-yl)phenyl)amino)-2-methyl-6-((5-(piperidin-1-yl)pyridin-2-yl)amino)-1,2-dihydro-3H-pyrazolo[3,4-b]pyridin-3-one]	1 to 10 nM	–
